In PubChem BioAssay (NCI):
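Here, GI50 denotes the concentration required for 50% inhibition of growth. TGI marks complete inhibition of growth.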

Columns and labels:
Assay in all cases: growth of human tumour cells (NCI), 384-well format
OVCAR-5 ovarian = test system: OVCAR-5 ovarian
UO-31 renal = test system: UO-31 renal
U251 glioblastoma = test system: U251 glioblastoma
NCI-H522 lung = test system: NCI-H522 lung
TK-10 renal = test system: TK-10 renal
M14 melanoma = test system: M14 melanoma
MDA-MB-435 melanoma = test system: MDA-MB-435 melanoma
SW-620 colon = test system: SW-620 colon
NCI-H460 NSCLC = test system: NCI-H460 NSCLC
HL-60(TB) leukemia = test system: HL-60(TB) leukemia
SF-539 CNS = test system: SF-539 CNS
NCI-H322M lung = test system: NCI-H322M lung
SK-MEL-5 melanoma = test system: SK-MEL-5 melanoma
HT29 colon = test system: HT29 colon
OVCAR-8 ovarian = test system: OVCAR-8 ovarian
K-562 leukemia = test system: K-562 leukemia
MDA-MB-231 breast = test system: MDA-MB-231 breast
SNB-75 CNS = test system: SNB-75 CNS
A549 NSCLC = test system: A549 NSCLC
HCT-15 colon = test system: HCT-15 colon
DU-145 prostate = test system: DU-145 prostate
CCRF-CEM leukemia = test system: CCRF-CEM leukemia
BT-549 breast = test system: BT-549 breast
SR leukemia = test system: SR leukemia
786-0 renal = test system: 786-0 renal
SF-268 CNS = test system: SF-268 CNS
SNB-19 CNS = test system: SNB-19 CNS
RXF 393 renal = test system: RXF 393 renal
SN12C renal = test system: SN12C renal
A498 renal = test system: A498 renal
HS 578T breast = test system: HS 578T breast
NCI-H226 lung = test system: NCI-H226 lung
LOX IMVI melanoma = test system: LOX IMVI melanoma
MOLT-4 leukemia = test system: MOLT-4 leukemia
NCI-H23 lung = test system: NCI-H23 lung
PC-3 prostate = test system: PC-3 prostate
HCT-116 colon = test system: HCT-116 colon
HOP-92 NSCLC = test system: HOP-92 NSCLC
SK-OV-3 ovarian = test system: SK-OV-3 ovarian
T-47D breast = test system: T-47D breast
NCI/ADR-RES ovarian = test system: NCI/ADR-RES ovarian
ACHN renal = test system: ACHN renal
SF-295 CNS = test system: SF-295 CNS
RPMI-8226 leukemia = test system: RPMI-8226 leukemia
IGROV1 ovarian = test system: IGROV1 ovarian
EKVX NSCLC = test system: EKVX NSCLC
MDA-MB-468 breast = test system: MDA-MB-468 breast
HOP-62 NSCLC = test system: HOP-62 NSCLC
KM12 colon = test system: KM12 colon
SK-MEL-28 melanoma = test system: SK-MEL-28 melanoma
CAKI-1 renal = test system: CAKI-1 renal
OVCAR-3 ovarian = test system: OVCAR-3 ovarian
COLO 205 colon = test system: COLO 205 colon
HCC-2998 colon = test system: HCC-2998 colon
OVCAR-4 ovarian = test system: OVCAR-4 ovarian
UACC-257 melanoma = test system: UACC-257 melanoma
MALME-3M melanoma = test system: MALME-3M melanoma
MCF7 breast = test system: MCF7 breast

**Q.** For `COc1ccc2c(c[n+](C)c3c4cc5c(cc4ccc23)OCO5)c1OC`, which GI50 (OVCAR-5 ovarian) is on record?
**A.** 1.76 µM

**Q.** And the TGI (OVCAR-5 ovarian)?
**A.** 3.16 µM

**Q.** And the GI50 (UO-31 renal)?
**A.** 1.4 µM

**Q.** What about the TGI (UO-31 renal) of the same molecule?
**A.** 2.7 µM

**Q.** And the GI50 (U251 glioblastoma)?
**A.** 0.866 µM

**Q.** And the TGI (U251 glioblastoma)?
**A.** 2.08 µM

**Q.** And the GI50 (NCI-H522 lung)?
**A.** 1.44 µM

**Q.** What about the TGI (NCI-H522 lung) of the same molecule?
**A.** 2.75 µM

**Q.** What about the GI50 (TK-10 renal) of the same molecule?
**A.** 1.42 µM

**Q.** What about the TGI (TK-10 renal) of the same molecule?
**A.** 2.73 µM

**Q.** What about the GI50 (M14 melanoma) of the same molecule?
**A.** 1.59 µM

**Q.** And the TGI (M14 melanoma)?
**A.** 2.94 µM

**Q.** What about the GI50 (MDA-MB-435 melanoma) of the same molecule?
**A.** 1.63 µM

**Q.** What about the TGI (MDA-MB-435 melanoma) of the same molecule?
**A.** 2.99 µM

**Q.** And the GI50 (SW-620 colon)?
**A.** 0.267 µM

**Q.** What about the TGI (SW-620 colon) of the same molecule?
**A.** 0.758 µM

**Q.** And the GI50 (NCI-H460 NSCLC)?
**A.** 1.52 µM

**Q.** And the TGI (NCI-H460 NSCLC)?
**A.** 2.85 µM

**Q.** What about the GI50 (HL-60(TB) leukemia) of the same molecule?
**A.** 0.182 µM

**Q.** And the TGI (HL-60(TB) leukemia)?
**A.** 0.324 µM

**Q.** What about the GI50 (SF-539 CNS) of the same molecule?
**A.** 1.63 µM

**Q.** And the TGI (SF-539 CNS)?
**A.** 2.99 µM

**Q.** And the GI50 (NCI-H322M lung)?
**A.** 1.77 µM

**Q.** What about the TGI (NCI-H322M lung) of the same molecule?
**A.** 3.19 µM

**Q.** And the GI50 (SK-MEL-5 melanoma)?
**A.** 0.72 µM

**Q.** And the TGI (SK-MEL-5 melanoma)?
**A.** 2.04 µM

**Q.** And the GI50 (HT29 colon)?
**A.** 1.68 µM

**Q.** And the TGI (HT29 colon)?
**A.** 3.05 µM

**Q.** What about the GI50 (OVCAR-8 ovarian) of the same molecule?
**A.** 0.395 µM

**Q.** And the TGI (OVCAR-8 ovarian)?
**A.** 1.43 µM

**Q.** And the GI50 (K-562 leukemia)?
**A.** 1.61 µM

**Q.** What about the TGI (K-562 leukemia) of the same molecule?
**A.** 2.97 µM

**Q.** And the GI50 (MDA-MB-231 breast)?
**A.** 0.721 µM

**Q.** And the TGI (MDA-MB-231 breast)?
**A.** 1.99 µM

**Q.** And the GI50 (SNB-75 CNS)?
**A.** 1.64 µM

**Q.** And the TGI (SNB-75 CNS)?
**A.** 3 µM

**Q.** And the GI50 (A549 NSCLC)?
**A.** 1.83 µM

**Q.** And the TGI (A549 NSCLC)?
**A.** 3.27 µM

**Q.** And the GI50 (HCT-15 colon)?
**A.** 0.825 µM

**Q.** And the TGI (HCT-15 colon)?
**A.** 2.07 µM

**Q.** What about the GI50 (DU-145 prostate) of the same molecule?
**A.** 1.46 µM

**Q.** And the TGI (DU-145 prostate)?
**A.** 2.77 µM

**Q.** What about the GI50 (CCRF-CEM leukemia) of the same molecule?
**A.** 0.146 µM

**Q.** And the TGI (CCRF-CEM leukemia)?
**A.** 0.278 µM

**Q.** What about the GI50 (BT-549 breast) of the same molecule?
**A.** 0.68 µM

**Q.** What about the TGI (BT-549 breast) of the same molecule?
**A.** 1.94 µM

**Q.** What about the GI50 (SR leukemia) of the same molecule?
**A.** 0.174 µM

**Q.** What about the TGI (SR leukemia) of the same molecule?
**A.** 0.317 µM

**Q.** And the GI50 ([…]-0 renal)?
**A.** 1.34 µM

**Q.** And the TGI (786-0 renal)?
**A.** 2.63 µM

**Q.** And the GI50 (SF-268 CNS)?
**A.** 1.34 µM

**Q.** And the TGI (SF-268 CNS)?
**A.** 2.62 µM

**Q.** What about the GI50 (SNB-19 CNS) of the same molecule?
**A.** 1.5 µM

**Q.** What about the TGI (SNB-19 CNS) of the same molecule?
**A.** 2.84 µM

**Q.** What about the GI50 (RXF 393 renal) of the same molecule?
**A.** 1.57 µM

**Q.** And the TGI (RXF 393 renal)?
**A.** 2.94 µM

**Q.** What about the GI50 (SN12C renal) of the same molecule?
**A.** 0.615 µM

**Q.** And the TGI (SN12C renal)?
**A.** 1.89 µM

**Q.** And the GI50 (A498 renal)?
**A.** 1.87 µM

**Q.** What about the TGI (A498 renal) of the same molecule?
**A.** 3.39 µM

**Q.** What about the GI50 (HS 578T breast) of the same molecule?
**A.** 1.55 µM

**Q.** And the TGI (HS 578T breast)?
**A.** 2.89 µM

**Q.** And the GI50 (NCI-H226 lung)?
**A.** 1.83 µM

**Q.** And the TGI (NCI-H226 lung)?
**A.** 3.22 µM

**Q.** And the GI50 (LOX IMVI melanoma)?
**A.** 1.1 µM

**Q.** What about the TGI (LOX IMVI melanoma) of the same molecule?
**A.** 2.31 µM

**Q.** And the GI50 (MOLT-4 leukemia)?
**A.** 0.163 µM

**Q.** What about the TGI (MOLT-4 leukemia) of the same molecule?
**A.** 0.3 µM

**Q.** What about the GI50 (NCI-H23 lung) of the same molecule?
**A.** 1 µM

**Q.** And the TGI (NCI-H23 lung)?
**A.** 2.16 µM

**Q.** And the GI50 (PC-3 prostate)?
**A.** 1.19 µM

**Q.** What about the TGI (PC-3 prostate) of the same molecule?
**A.** 2.42 µM

**Q.** And the GI50 (HCT-116 colon)?
**A.** 0.399 µM

**Q.** And the TGI (HCT-116 colon)?
**A.** 1.38 µM

**Q.** And the GI50 (HOP-92 NSCLC)?
**A.** 1.51 µM

**Q.** And the TGI (HOP-92 NSCLC)?
**A.** 2.85 µM

**Q.** What about the GI50 (SK-OV-3 ovarian) of the same molecule?
**A.** 1.71 µM

**Q.** What about the TGI (SK-OV-3 ovarian) of the same molecule?
**A.** 3.13 µM

**Q.** And the GI50 (T-47D breast)?
**A.** 1.63 µM

**Q.** And the TGI (T-47D breast)?
**A.** 2.99 µM

**Q.** And the GI50 (NCI/ADR-RES ovarian)?
**A.** 1.02 µM

**Q.** And the TGI (NCI/ADR-RES ovarian)?
**A.** 2.59 µM

**Q.** What about the GI50 (ACHN renal) of the same molecule?
**A.** 1.82 µM

**Q.** What about the TGI (ACHN renal) of the same molecule?
**A.** 3.21 µM

**Q.** And the GI50 (SF-295 CNS)?
**A.** 1.74 µM

**Q.** What about the TGI (SF-295 CNS) of the same molecule?
**A.** 3.15 µM

**Q.** And the GI50 (RPMI-8226 leukemia)?
**A.** 0.44 µM

**Q.** And the TGI (RPMI-8226 leukemia)?
**A.** 1.46 µM

**Q.** And the GI50 (IGROV1 ovarian)?
**A.** 1.62 µM

**Q.** And the TGI (IGROV1 ovarian)?
**A.** 2.97 µM

**Q.** And the GI50 (EKVX NSCLC)?
**A.** 1.45 µM

**Q.** And the TGI (EKVX NSCLC)?
**A.** 2.76 µM

**Q.** And the GI50 (MDA-MB-468 breast)?
**A.** 0.365 µM

**Q.** And the TGI (MDA-MB-468 breast)?
**A.** 1.36 µM

**Q.** And the GI50 (HOP-62 NSCLC)?
**A.** 1.06 µM

**Q.** What about the TGI (HOP-62 NSCLC) of the same molecule?
**A.** 2.25 µM

**Q.** What about the GI50 (KM12 colon) of the same molecule?
**A.** 1.47 µM

**Q.** And the TGI (KM12 colon)?
**A.** 2.8 µM

**Q.** And the GI50 (SK-MEL-28 melanoma)?
**A.** 1.9 µM

**Q.** And the TGI (SK-MEL-28 melanoma)?
**A.** 3.35 µM

**Q.** What about the GI50 (CAKI-1 renal) of the same molecule?
**A.** 1.27 µM

**Q.** And the TGI (CAKI-1 renal)?
**A.** 2.56 µM

**Q.** What about the GI50 (OVCAR-3 ovarian) of the same molecule?
**A.** 0.362 µM

**Q.** What about the TGI (OVCAR-3 ovarian) of the same molecule?
**A.** 1.33 µM

**Q.** What about the GI50 (COLO 205 colon) of the same molecule?
**A.** 1.57 µM

**Q.** What about the TGI (COLO 205 colon) of the same molecule?
**A.** 2.92 µM

**Q.** What about the GI50 (HCC-2998 colon) of the same molecule?
**A.** 1.59 µM

**Q.** What about the TGI (HCC-2998 colon) of the same molecule?
**A.** 2.94 µM

**Q.** And the GI50 (OVCAR-4 ovarian)?
**A.** 1.5 µM

**Q.** And the TGI (OVCAR-4 ovarian)?
**A.** 2.87 µM

**Q.** What about the GI50 (UACC-257 melanoma) of the same molecule?
**A.** 1.23 µM

**Q.** And the TGI (UACC-257 melanoma)?
**A.** 2.48 µM

**Q.** And the GI50 (MALME-3M melanoma)?
**A.** 0.748 µM

**Q.** What about the TGI (MALME-3M melanoma) of the same molecule?
**A.** 1.96 µM

**Q.** And the GI50 (MCF7 breast)?
**A.** 1.13 µM

**Q.** What about the TGI (MCF7 breast) of the same molecule?
**A.** 2.35 µM
